Measurements: patent publication US20240376085A1 (Janssen Pharmaceutica NV, priority 2021, published 2024)

Columns and labels:
IL-17A : IL-17RA binding = target: T1, IL-17A : IL-17RA binding (Homo sapiens, UniProt Q16552, K93Q); assay: IL-17A(FLAG-tagged):IL-17RA(His-tagged) binding disruption Eu-HTRF assay, Protocol 1; details: FLAG-IL-17A 2.5 nM at 2x final concentration; average if tested more than once
T1 construct: Name: IL-17A-Flag
Outline: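 IC50 came from a one-site competition fit of the acceptor/donor (665/620 nm) HTRF ratio. His-tagged IL-17RA, Eu-anti-FLAG and D2-anti-His were added after a 1 h rt compound preincubation with FLAG-tagged IL-17A dimer in PBS/0.01% Triton X-100, followed by 2 h at rt before reading.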

[1] = system: IL-17A-induced G-CSF production in human normal keratinocyte (NHK); assay: NHK assay: IL-17A-induced G-CSF production in normal human keratinocytes; assay type: cell-based; details: 24 h, IL-17A 5 ng/mL, average if tested more than once
Outline: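 IC50 derives from G-CSF in supernatants, quantified by HTRF from a standard curve, with CellTiter-Glo viability compared to DMSO control. Before a 24 h, 37°C culture of normal human keratinocytes at 3000–4000 cells/well, compound dilutions were preincubated 1 h at rt with human IL-17A (5 ng/mL final), with 0.2% DMSO and 5% FBS.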

T1 sequence (Q16552 with tags, fused parts or gaps K93Q): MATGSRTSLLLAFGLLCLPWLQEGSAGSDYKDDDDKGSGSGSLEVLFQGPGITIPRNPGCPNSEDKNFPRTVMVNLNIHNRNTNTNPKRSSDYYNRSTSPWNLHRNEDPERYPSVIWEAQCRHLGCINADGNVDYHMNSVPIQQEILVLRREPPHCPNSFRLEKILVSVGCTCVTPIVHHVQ

Structure (SMILES)	IC50 (IL-17A : IL-17RA binding)	IC50 ([1]; Homo sapiens, Keratinocyte)	IC50 [1]
CC(C)n1nccc1C(=O)N[C@H](c1nc2ccc([C@H](NC(=O)CC3CC(F)(F)C3)C3CC3)cc2[nH]1)C1CCCCO1 (single isomer, unassigned) [Example 253, N—((R)-(6-((R)-Cyclopropyl(2-(3,3-difluorocyclobutyl)acetamido)methyl)-1H-benzo[d]imidazol-2-yl)((R*)-tetrahydro-2H-pyran-2-yl)methyl)-1-isopropyl-1H-pyrazole-5-carboxamide]	> 100 nM	> 100 nM	–
C[C@@H](NC(=O)CCC(F)(F)F)c1ccc2[nH]c([C@@H](NC(=O)C3CC34CC4)C3CCC(F)(F)CC3)nc2c1 (stereo partly drawn) [Example 110, N—((S)-(4,4-Difluorocyclohexyl)(5-((R)-1-(4,4,4-trifluorobutanamido)ethyl)-1H-benzo[d]imidazol-2-yl)methyl)spiro[2.2]pentane-1-carboxamide]	> 100 nM	> 100 nM	–
C[C@@H](NC(=O)CCC(F)(F)F)c1ccc2[nH]c([C@@H](NC(=O)[C@H]3C[C@H]3F)C3CCC(F)(F)CC3)nc2c1 [Example 99, (1R,2R)—N—((S)-(4,4-Difluorocyclohexyl)(5-((R)-1-(4,4,4-trifluorobutanamido)ethyl)-1H-benzo[d]imidazol-2-yl)methyl)-2-fluorocyclopropane-1-carboxamide]	> 100 nM	> 100 nM	–
CC(C)n1nccc1C(=O)N[C@H](c1nc2ccc([C@H](NC(=O)CC3CC(F)(F)C3)C3CC3)cc2[nH]1)C1CCC(F)(F)CO1 (single isomer, unassigned) [Example 261, N—((R)-(6-((R)-Cyclopropyl(2-(3,3-difluorocyclobutyl)acetamido)methyl)-1H-benzo[d]imidazol-2-yl)((S*)-5,5-difluorotetrahydro-2H-pyran-2-yl)methyl)-1-isopropyl-1H-pyrazole-5-carboxamide]	> 100 nM	50 to 100 nM	–
CC(C)n1nccc1C(=O)N[C@@H](CO[C@@H](C)C(F)(F)F)c1nc2ccc([C@H](NC(=O)CC3CC(F)(F)C3)C3CC3)cc2[nH]1 (relative stereo) [Example 158, N—((R*)-1-(6-((R)-Cyclopropyl(2-(3,3-difluorocyclobutyl)acetamido)methyl)-1H-benzo[d]imidazol-2-yl)-2-(((S)-1,1,1-trifluoropropan-2-yl)oxy)ethyl)-1-isopropyl-1H-pyrazole-5-carboxamide]	< 50 nM	> 100 nM	–
CC(CC(=O)N[C@@H](c1ccc2[nH]c([C@H](COC(C)(C)C(F)(F)F)NC(=O)c3nonc3C3CC3)nc2c1)C1CC1)C(F)F (single isomer, unassigned) [Example 175, 4-Cyclopropyl-N—((R)-1-(5-((R)-cyclopropyl((R*)-4,4-difluoro-3-methylbutanamido)methyl)-1H-benzo[d]imidazol-2-yl)-2-((1,1,1-trifluoro-2-methylpropan-2-yl)oxy)ethyl)-1,2,5-oxadiazole-3-carboxamide]	< 50 nM	> 100 nM	–
C[C@@H](NC(=O)CCC(F)(F)F)c1ccc2[nH]c([C@@H](NC(=O)[C@@H]3C[C@@H]3F)C3CCC(F)(F)CC3)nc2c1 [Example 101, (1S,2S)—N—((S)-(4,4-Difluorocyclohexyl)(5-((R)-1-(4,4,4-trifluorobutanamido)ethyl)-1H-benzo[d]imidazol-2-yl)methyl)-2-fluorocyclopropane-1-carboxamide]	> 100 nM	> 100 nM	–
CC(C)n1nccc1C(=O)N[C@@H](COC(C)(C)C(F)(F)F)c1nc2cc([C@H](NC(=O)CC3CC(F)(F)C3)C3CC3)ccc2[nH]1 [Example 160, N—((R)-1-(5-((R)-Cyclopropyl(2-(3,3-difluorocyclobutyl)acetamido)methyl)-1H-benzo[d]imidazol-2-yl)-2-((1,1,1-trifluoro-2-methylpropan-2-yl)oxy)ethyl)-1-isopropyl-1H-pyrazole-5-carboxamide]	< 50 nM	< 50 nM	–
C[C@@H](NC(=O)CCC(F)(F)F)c1ccc2[nH]c([C@@H](NC(=O)C34CC(C3)C4)C3CCC(F)(F)CC3)nc2c1 [Example 112, N—((S)-(4,4-Difluorocyclohexyl)(5-((R)-1-(4,4,4-trifluorobutanamido)ethyl)-1H-benzo[d]imidazol-2-yl)methyl)bicyclo[1.1.1]pentane-1-carboxamide]	> 100 nM	> 100 nM	–

Now from value to compound, other results behind:

IC50 (IL-17A : IL-17RA binding)	Structure (SMILES)	IC50 ([1]; Homo sapiens, Keratinocyte)	IC50 [1]
> 100 nM	C[C@@H](NC(=O)CCC(F)(F)F)c1ccc2nc([C@@H](NC(=O)c3ccccc3)C3CCC(F)(F)CC3)[nH]c2c1 [Example 120, N—((S)-(4,4-Difluorocyclohexyl)(6-((R)-1-(4,4,4-trifluorobutanamido)ethyl)-1H-benzo[d]imidazol-2-yl)methyl)benzamide]	50 to 100 nM	–
> 100 nM	CC(Cn1nncc1C(=O)N[C@H](c1nc2ccc([C@@H](C)NC(=O)CCC(F)(F)F)cc2[nH]1)C1CCC(F)(F)CC1)C(F)(F)F (single isomer, unassigned) [Example 72, N—((S)-(4,4-Difluorocyclohexyl)(6-((R)-1-(4,4,4-trifluorobutanamido)ethyl)-1H-benzo[d]imidazol-2-yl)methyl)-1-((S*)-3,3,3-trifluoro-2-methylpropyl)-1H-1,2,3-triazole-5-carboxamide]	–	> 100 nM
> 100 nM	C[C@@H](NC(=O)CCC(F)(F)F)c1ccc2[nH]c([C@@H](NC(=O)c3cnn(CCOC(F)F)c3)C3CCC(F)(F)CC3)nc2c1 [Example 27, N—[(S)-(4,4-Difluorocyclohexyl)-[6-[(1R)-1-(4,4,4-trifluorobutanoylamino)ethyl]-1H-benzimidazol-2-yl]methyl]-1-[2-(difluoromethoxy)ethyl]pyrazole-4-carboxamide]	> 100 nM	–
> 100 nM	C[C@@H](NC(=O)CCC(F)(F)F)c1ccc2[nH]c([C@@H](NC(=O)c3ncn(C)n3)C3CCC(F)(F)CC3)nc2c1 [Example 32, N—[(S)-(4,4-Difluorocyclohexyl)-[6-[(1R)-1-(4,4,4-trifluorobutanoylamino)ethyl]-1H-benzimidazol-2-yl]methyl]-1-methyl-1,2,4-triazole-3-carboxamide]	> 100 nM	–
> 100 nM	C[C@@H](NC(=O)CCC(F)(F)F)c1ccc2[nH]c([C@@H](NC(=O)c3ccn(CCC(F)(F)F)n3)C3CCC(F)(F)CC3)nc2c1 [Example 2, N—[(S)-(4,4-Difluorocyclohexyl)-[6-[(1R)-1-(4,4,4-trifluorobutanoylamino)ethyl]-1H-benzimidazol-2-yl]methyl]-1-(3,3,3-trifluoropropyl)pyrazole-3-carboxamide]	> 100 nM	–
> 100 nM	C[C@@H](NC(=O)CCC(F)(F)F)c1ccc2[nH]c([C@@H](NC(=O)c3cnnn3CC3CC3)C3CCC(F)(F)CC3)nc2c1 [Example 9, 3-(Cyclopropylmethyl)-N—[(S)-(4,4-difluorocyclohexyl)-[6-[(1R)-1-(4,4,4-trifluorobutanoylamino)ethyl]-1H-benzimidazol-2-yl]methyl]triazole-4-carboxamide]	> 100 nM	–
< 50 nM	CC(C)n1cccc1C(=O)N[C@H](c1nc2cc([C@@H](C)NC(=O)CCC(F)(F)F)ccc2[nH]1)C1CCC(F)(F)CC1 [Example 213, N—((S)-(4,4-Difluorocyclohexyl)(5-((R)-1-(4,4,4-trifluorobutanamido)ethyl)-1H-benzo[d]imidazol-2-yl)methyl)-1-isopropyl-1H-pyrrole-2-carboxamide]	< 50 nM	–
> 100 nM	C[C@@H](NC(=O)CCC(F)(F)F)c1ccc2[nH]c([C@@H](NC(=O)c3cn(CC4CC(F)(F)C4(F)F)nn3)C3CCC(F)(F)CC3)nc2c1 (stereo partly drawn) [Example 84, N—((S)-(4,4-Difluorocyclohexyl)(5-((R)-1-(4,4,4-trifluorobutanamido)ethyl)-1H-benzo[d]imidazol-2-yl)methyl)-1-((2,2,3,3-tetrafluorocyclobutyl)methyl)-1H-1,2,3-triazole-4-carboxamide]	> 100 nM	–
> 100 nM	C[C@@H](NC(=O)CC(C(F)(F)F)C(F)(F)F)c1ccc2[nH]c([C@@H](NC(=O)c3ccnn3CC(F)(F)F)C3CCC(F)(F)CC3)nc2c1 [Example 129, N—((S)-(4,4-Difluorocyclohexyl)(5-((R)-1-(4,4,4-trifluoro-3-(trifluoromethyl)butanamido)ethyl)-1H-benzo[d]imidazol-2-yl)methyl)-1-(2,2,2-trifluoroethyl)-1H-pyrazole-5-carboxamide]	50 to 100 nM	–
> 100 nM	C[C@@H](NC(=O)CCC(F)(F)F)c1ccc2nc([C@@H](NC(=O)c3cnn(CC4CC(F)(F)C4)n3)C3CCC(F)(F)CC3)[nH]c2c1 [Example 64, 2-((3,3-Difluorocyclobutyl)methyl)-N—((S)-(4,4-difluorocyclohexyl)(6-((R)-1-(4,4,4-trifluorobutanamido)ethyl)-1H-benzo[d]imidazol-2-yl)methyl)-2H-1,2,3-triazole-4-carboxamide]	> 100 nM	–
> 100 nM	C[C@@H](NC(=O)CCC(F)(F)F)c1ccc2[nH]c([C@@H](NC(=O)c3cn(CC4CC4)nn3)C3CCC(F)(F)CC3)nc2c1 [Example 10, 1-(Cyclopropylmethyl)-N—[(S)-(4,4-difluorocyclohexyl)-[6-[(1R)-1-(4,4,4-trifluorobutanoylamino)ethyl]-1H-benzimidazol-2-yl]methyl]triazole-4-carboxamide]	> 100 nM	–
